Results from patent US20190351031A1, “METHODS OF SELECTING SUBJECTS FOR COMBINATION CANCER THERAPY WITH A POLYMER-CONJUGATED SOLUBLE PH20” (HALOZYME, INC., priority 2018, published 2019).

Experiments:
[1] = route: IV or PO; cited from earlier work
B16 melanoma model = conditions: oral 600 mg/kg/d (Yoshihara et al. 2005); cited from earlier work
cytidine deaminase = molecular target: T1, cytidine deaminase (Homo sapiens, UniProt P32320); conditions: cited from earlier work
T1 construct: for the enzyme purified from human liver; host or cells: human liver
T1 sequence (P32320 whole entry): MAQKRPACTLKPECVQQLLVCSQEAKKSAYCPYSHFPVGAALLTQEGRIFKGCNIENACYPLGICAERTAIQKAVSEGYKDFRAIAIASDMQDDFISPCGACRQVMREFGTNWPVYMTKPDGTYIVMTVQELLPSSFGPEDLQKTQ

[2] = in vivo; cited from earlier work
[3] = system: BxPC3 pancreatic cancer cell line; test: Median survival time (time to survival endpoint) in BxPC-3 xenograft model; assay type: in vivo, mouse; conditions: three 4-week dosing cycles; PEGPH20 4.5, nab-paclitaxel 10 mg/kg, gemcitabine 180 mg/kg
Protocol: Following the first four week dosing cycle as set forth in part A, the dosing cycle was repeated two times and time to survival endpoint was followed over time. Briefly, in each dosing cycle, animals were treated with vehicle or PEGPH20 ([…]) with or without nab-paclitaxel (10 mg/kg) intravenously twice a week for four weeks. In each cycle, groups receiving gemcitabine were administered gemcitabine (180 mg/kg) 24 hours after PEGPH20 and/or nab-paclitaxel every 7 days for three weeks of the dose cycle. Time to survival endpoint, a measure of animal survival, was defined as (a) time to tumor volume of greater than 2000 mm^3, (b) time to a greater than 20% bodyweight loss, or (c) time to animal duress or death.

[4] = system: BxPC3 pancreatic cancer cell line; test: Tumor growth inhibition in BxPC-3 human pancreatic tumor xenograft model; assay type: in vivo, mouse; conditions: gemcitabine 60, 120, 180 and 240 mg/kg once a week, day 0, 7, 14, 21
Protocol: Tumor cells from the BxPC3 pancreatic cancer cell line (American Tissue Culture Collection (ATCC) CRL-1687) were grown to approximately 80% confluency, trypsinized, collected, washed once in HBSS (Hank's balance salt solution, Mediatech Inc.). Prior to inoculation, cells were washed twice with sterile HBSS, counted using a Nexcelom Cellometer (Nexcelom Bioscience; Lawrence, Mass.) automated counting device which determines cell concentration and viability via Trypan Blue exclusion and diluted with HBSS to a concentration of 1×10^8 cells/mL on ice before inoculation into animals. Male nude mice (Athymic NCr nu/nu mice, Taconic Laboratories, Inc.) approximately 6 weeks old, were inoculated intramuscularly (IM) with 0.05 mL of cell suspension, peritibially, in the left hind leg (adjacent to the tibia periosteum). The tumors in the animals were assessed twice a week and allowed to grow to a mean tumor volume of approximately 350-400 mm^3. Actual tumor volumes were determined using VisualSonics Vevo 770 high-resolution ultrasound (VisulaSonics Inc.; Toronto, Ontario, Canada). […]
The tumor volumes of all mice were measured by capturing images using the VisualSonics ultrasound system 2 times per week. Tumor volume was calculated using a 3D-mode imaging software program (VisualSonics® Vevo 770®, v 3.0.0). The percent tumor growth inhibition (% TGI) was calculated by the following equation: […]

[5] = system: carbohydrate antigen 19-9 (CA19-9); test: Serum CA19-9 tumor biomarker ELISA in BxPC-3 xenograft model; assay type: in vivo, mouse; conditions: day 20 of first dosing cycle
Protocol: C. Measurement of Tumor Biomarkers Biomarkers carbohydrate antigen 19-9 (CA19-9) and carcinoembryonic antigen (CEA) associated with pancreatic cancer were tested to measure therapeutic response. Animals were treated as described in part A. Serum was collected from satellite animals ([…]) from each group on day 0, 6, 13 and 20 of the first dosing cycle. Human CA19-9 was measured using a CA 19-9 ELISA kit (Catalog No. CA199T, Calbiotech, Spring Valley, Calif.) and CEA tumor antigen was measured using a CEA ELISA kit (Catalog No. CE062T, Calbiotech, Spring Valley, Calif.).

pancreatic cancer = conditions: gemcitabine monotherapy (Burris et al. 1997); cited from earlier work

In the case of `C[C@]12C=CC(=O)C=C1CC[C@@H]1[C@@H]2[C@@H](O)C[C@@]2(C)[C@H]1CC[C@]2(O)C(=O)CO` [Prednisolone], the “Equivalent Potency” value [1] is given as 5 mg.
In the case of `Cc1cc(=O)oc2cc(O)ccc12` [4-MU, 7-hydroxy-4-methylcoumarin], the reduction of metastases (B16 melanoma model) is listed as 64%.
For `Nc1ccn([C@H]2C[C@H](O)[C@@H](CO)O2)c(=O)n1` [deoxycytidine], the “rate of deamination relative to decitabine at equal concentrations” value (cytidine deaminase) is listed as “about 6 fold”.
For `C[C@H]1C[C@@H]2[C@H]([C@@H](O)C[C@@]3(C)[C@H]2CC[C@]3(O)C(=O)COC(=O)CCC(=O)O)[C@@]2(C)C=CC(=O)C=C12` [Methylprednisolone sodium succinate], the “Equivalent Potency” value [1] is given as 4 mg.
For `C[C@]12CCC(=O)C=C1CC[C@@H]1[C@@H]2[C@@H](O)C[C@@]2(C)[C@H]1CC[C@]2(O)C(=O)CO` [Hydrocortisone], the “Equivalent Potency” value [1] is listed as 20 mg.
In the case of `Nc1ccn([C@@H]2O[C@H](CO)[C@@H](O)C2(F)F)c(=O)n1` [gemcitabine, 2′,2′-difluorodeoxycytidine], the half-life in plasma [2] is listed as “approximately 10 minutes”, the “Median Survival Time” value [3] is listed as 38 days and the “tumor growth compared to vehicle only” value [4] is listed as “inhibited tumor growth at all doses tested”. For the same molecule, the “level of CA19-9 marker in serum” value [5] was “approximately similar to vehicle only control” and the median survival (pancreatic cancer) was “over 5 months”.
